Reference: article PMC5791972 (PLoS ONE, 2018)
Where two headings read alike, the source gives them in different places.

Key:
AR (h) = target: T1, AR (h) (Homo sapiens, UniProt P10275, T878A); type: binding; details: 1.0E-06 M
T1 construct: AR (h) LNCaP cells [3H]methyltrienolone; host or cells: LNCaP cells (cytosol)
T1 sequence (P10275 1-920 T878A): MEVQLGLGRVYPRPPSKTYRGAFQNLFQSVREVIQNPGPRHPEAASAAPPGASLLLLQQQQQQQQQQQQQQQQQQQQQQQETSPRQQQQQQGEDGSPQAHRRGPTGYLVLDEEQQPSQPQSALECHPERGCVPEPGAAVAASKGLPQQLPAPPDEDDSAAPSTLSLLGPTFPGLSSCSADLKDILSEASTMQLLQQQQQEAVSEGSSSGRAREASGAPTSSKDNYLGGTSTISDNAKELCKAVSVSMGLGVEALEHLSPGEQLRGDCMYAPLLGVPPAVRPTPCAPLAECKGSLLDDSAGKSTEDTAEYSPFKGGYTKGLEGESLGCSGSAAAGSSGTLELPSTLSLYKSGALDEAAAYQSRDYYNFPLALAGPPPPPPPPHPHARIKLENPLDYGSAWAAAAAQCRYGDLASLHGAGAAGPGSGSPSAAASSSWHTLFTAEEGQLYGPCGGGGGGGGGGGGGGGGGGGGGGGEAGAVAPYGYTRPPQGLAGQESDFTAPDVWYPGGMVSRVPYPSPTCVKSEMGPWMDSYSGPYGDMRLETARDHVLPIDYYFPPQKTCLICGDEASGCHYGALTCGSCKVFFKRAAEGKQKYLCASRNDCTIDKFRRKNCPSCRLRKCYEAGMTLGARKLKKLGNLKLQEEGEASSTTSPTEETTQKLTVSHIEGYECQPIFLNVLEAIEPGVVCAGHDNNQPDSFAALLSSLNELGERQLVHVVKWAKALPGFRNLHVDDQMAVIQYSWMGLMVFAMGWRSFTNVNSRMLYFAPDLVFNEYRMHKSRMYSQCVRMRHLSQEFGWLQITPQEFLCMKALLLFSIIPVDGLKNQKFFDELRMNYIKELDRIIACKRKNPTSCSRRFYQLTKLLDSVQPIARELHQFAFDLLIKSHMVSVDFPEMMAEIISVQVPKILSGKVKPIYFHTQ

M4 (h) = target: T2, M4 (h) (Homo sapiens, UniProt P08173); assay: biochemical
T2 sequence (P08173 1-479): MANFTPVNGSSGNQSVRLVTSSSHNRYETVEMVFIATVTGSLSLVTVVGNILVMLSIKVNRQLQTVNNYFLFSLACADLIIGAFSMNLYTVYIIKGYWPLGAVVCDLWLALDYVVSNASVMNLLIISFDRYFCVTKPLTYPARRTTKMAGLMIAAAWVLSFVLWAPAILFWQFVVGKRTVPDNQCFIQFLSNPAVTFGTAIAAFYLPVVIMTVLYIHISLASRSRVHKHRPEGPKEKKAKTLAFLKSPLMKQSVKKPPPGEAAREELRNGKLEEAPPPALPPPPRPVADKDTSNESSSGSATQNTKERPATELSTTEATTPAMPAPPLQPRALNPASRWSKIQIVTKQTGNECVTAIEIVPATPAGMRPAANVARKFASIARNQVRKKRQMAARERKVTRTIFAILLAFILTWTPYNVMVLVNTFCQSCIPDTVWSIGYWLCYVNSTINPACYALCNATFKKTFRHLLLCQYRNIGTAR

α1 (non-selective) = type: binding, rat; details: 1.0E-06 M
NMDA = type: binding, rat; details: 1.0E-06 M
5-HT2A (h) = target: T3, 5-HT2A (h) (Homo sapiens, UniProt P28223); type: binding
T3 construct: host or cells: HEK-293 cells
T3 sequence (P28223 whole entry): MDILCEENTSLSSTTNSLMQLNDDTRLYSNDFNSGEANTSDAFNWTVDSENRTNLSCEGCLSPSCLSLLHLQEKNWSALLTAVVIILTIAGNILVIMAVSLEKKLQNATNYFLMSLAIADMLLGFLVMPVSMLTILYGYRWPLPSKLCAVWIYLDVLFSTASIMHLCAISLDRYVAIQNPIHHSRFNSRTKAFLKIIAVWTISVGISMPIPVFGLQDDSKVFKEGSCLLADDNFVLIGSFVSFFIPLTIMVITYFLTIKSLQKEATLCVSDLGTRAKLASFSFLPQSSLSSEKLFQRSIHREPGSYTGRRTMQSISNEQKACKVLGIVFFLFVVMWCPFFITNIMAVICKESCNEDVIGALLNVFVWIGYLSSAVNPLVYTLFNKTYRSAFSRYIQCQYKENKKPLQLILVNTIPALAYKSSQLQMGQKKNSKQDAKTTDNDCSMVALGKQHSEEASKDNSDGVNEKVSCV

V1a (h) = target: T4, V1a (h) (Homo sapiens, UniProt P37288); type: binding; details: 1.0E-06 M
T4 construct: host or cells: CHO cells
T4 sequence (P37288 whole entry): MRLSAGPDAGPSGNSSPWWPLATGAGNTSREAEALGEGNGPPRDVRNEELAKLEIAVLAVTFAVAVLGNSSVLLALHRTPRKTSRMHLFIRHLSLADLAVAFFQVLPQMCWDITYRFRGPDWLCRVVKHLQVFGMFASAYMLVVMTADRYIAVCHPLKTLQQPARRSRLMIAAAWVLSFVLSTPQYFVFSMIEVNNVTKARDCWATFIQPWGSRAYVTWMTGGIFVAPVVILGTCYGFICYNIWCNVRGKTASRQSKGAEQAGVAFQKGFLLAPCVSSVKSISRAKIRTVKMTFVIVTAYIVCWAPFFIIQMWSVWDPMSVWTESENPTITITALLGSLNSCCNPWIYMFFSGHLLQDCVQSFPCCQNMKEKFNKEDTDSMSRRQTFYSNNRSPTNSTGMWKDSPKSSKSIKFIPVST

ETB (h) = target: T5, ETB (h) (Homo sapiens, UniProt P24530); type: binding
T5 construct: host or cells: CHO cells
T5 sequence (P24530 27-442): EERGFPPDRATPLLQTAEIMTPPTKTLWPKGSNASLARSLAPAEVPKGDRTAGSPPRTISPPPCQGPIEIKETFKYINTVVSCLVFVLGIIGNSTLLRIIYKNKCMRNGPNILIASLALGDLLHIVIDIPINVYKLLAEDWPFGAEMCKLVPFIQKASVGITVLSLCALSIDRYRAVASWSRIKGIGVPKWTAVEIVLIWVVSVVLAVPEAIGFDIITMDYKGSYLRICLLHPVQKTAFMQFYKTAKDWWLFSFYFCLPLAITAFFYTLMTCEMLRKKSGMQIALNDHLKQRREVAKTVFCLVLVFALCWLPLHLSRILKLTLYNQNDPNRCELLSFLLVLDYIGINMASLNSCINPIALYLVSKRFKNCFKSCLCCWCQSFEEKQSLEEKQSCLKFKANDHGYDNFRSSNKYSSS

α2A (h) = target: T6, α2A (h) (Homo sapiens, UniProt P08913); type: binding; details: 1.0E-06 M
T6 construct: host or cells: CHO cells
T6 sequence (P08913 1-465): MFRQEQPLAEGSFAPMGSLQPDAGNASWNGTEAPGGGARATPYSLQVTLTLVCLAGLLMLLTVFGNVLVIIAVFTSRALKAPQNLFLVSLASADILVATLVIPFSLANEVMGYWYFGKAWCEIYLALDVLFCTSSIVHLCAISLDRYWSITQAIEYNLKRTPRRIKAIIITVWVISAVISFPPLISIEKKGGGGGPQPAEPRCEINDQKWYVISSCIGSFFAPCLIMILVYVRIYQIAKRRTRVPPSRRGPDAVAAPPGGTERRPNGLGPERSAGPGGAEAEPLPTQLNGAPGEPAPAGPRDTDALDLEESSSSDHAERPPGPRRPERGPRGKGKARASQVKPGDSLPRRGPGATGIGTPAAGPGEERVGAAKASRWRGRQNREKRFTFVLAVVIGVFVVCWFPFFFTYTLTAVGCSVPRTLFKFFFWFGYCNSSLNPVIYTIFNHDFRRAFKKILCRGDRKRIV

Compound: Cn1c(=O)n(CCCO)c(=O)c2c1nc(Oc1cccc(Cl)c1)n2Cc1ccc(Cl)cc1 [HC-070]
- inhibition at 1 µM (AR (h); read-out: % Inhibition 1st): 11.1%
- inhibition at 1 µM (AR (h); read-out: % Inhibition 2nd): 3.2%
- inhibition at 1 µM (AR (h); read-out: % Inhibition Mean): 7.1%

Compound: Cn1c(=O)n(CCCO)c(=O)c2c1nc(Oc1cccc(OC(F)(F)F)c1)n2Cc1ccc(Cl)cc1 [HC-608]
- inhibition at 1 µM (M4 (h); read-out: % Inhibition 1st): -16.1%
- inhibition at 1 µM (M4 (h); read-out: % Inhibition 2nd): 3.9%
- inhibition at 1 µM (M4 (h); read-out: % Inhibition Mean): -6.1%
- % Inhibition 1st (α1 (non-selective)): -2.8%
- % Inhibition 2nd (α1 (non-selective)): 1.1%
- % Inhibition Mean (α1 (non-selective)): -0.8%
- % Inhibition 1st (NMDA): 19%
- % Inhibition 2nd (NMDA): 3.2%
- % Inhibition Mean (NMDA): 11.1%
- inhibition at 1 µM (5-HT2A (h); read-out: % Inhibition 1st): -4.3%
- inhibition at 1 µM (5-HT2A (h); read-out: % Inhibition 2nd): 6.9%
- inhibition at 1 µM (5-HT2A (h); read-out: % Inhibition Mean): 1.3%
- inhibition at 1 µM (V1a (h); read-out: % Inhibition 1st): -9.9%
- inhibition at 1 µM (V1a (h); read-out: % Inhibition 2nd): 12.5%
- inhibition at 1 µM (V1a (h); read-out: % Inhibition Mean): 1.3%
- inhibition at 1 µM (ETB (h); 1.0E-06 M, read-out: % Inhibition 2nd): -0.1%
- inhibition at 1 µM (ETB (h); 1.0E-06 M, read-out: % Inhibition Mean): 12.7%
- inhibition at 1 µM (ETB (h); read-out: % Inhibition 1st): 25.5%
- inhibition at 1 µM (α2A (h); read-out: % Inhibition 1st): -14.9%
- inhibition at 1 µM (α2A (h); read-out: % Inhibition 2nd): -3.7%
- inhibition at 1 µM (α2A (h); read-out: % Inhibition Mean): -9.3%
